# Article PMC5674494, “Use of Cyclic Backbone NGR-Based SPECT to Increase Efficacy of Postmyocardial Infarction Angiogenesis Imaging” (Contrast Media & Molecular Imaging, 2017)
# Experiments:
# [1] = target: T1, CD13 (Mus musculus, UniProt P97449); assay: Dual-isotope micro-SPECT, SUV of 111In-labeled NGR tracers in heart segments of MI mice; assay type: in vivo, Swiss mice; details: MI mice 7 days after LAD ligation, mean ± SEM
# T1 construct: the level of CD13 expression was markedly higher in the infarcted myocardium of MI animals; from tissue; host or cells: heart (myocardium) of living Swiss mice, 7 days after MI
# T1 sequence (P97449 1-966): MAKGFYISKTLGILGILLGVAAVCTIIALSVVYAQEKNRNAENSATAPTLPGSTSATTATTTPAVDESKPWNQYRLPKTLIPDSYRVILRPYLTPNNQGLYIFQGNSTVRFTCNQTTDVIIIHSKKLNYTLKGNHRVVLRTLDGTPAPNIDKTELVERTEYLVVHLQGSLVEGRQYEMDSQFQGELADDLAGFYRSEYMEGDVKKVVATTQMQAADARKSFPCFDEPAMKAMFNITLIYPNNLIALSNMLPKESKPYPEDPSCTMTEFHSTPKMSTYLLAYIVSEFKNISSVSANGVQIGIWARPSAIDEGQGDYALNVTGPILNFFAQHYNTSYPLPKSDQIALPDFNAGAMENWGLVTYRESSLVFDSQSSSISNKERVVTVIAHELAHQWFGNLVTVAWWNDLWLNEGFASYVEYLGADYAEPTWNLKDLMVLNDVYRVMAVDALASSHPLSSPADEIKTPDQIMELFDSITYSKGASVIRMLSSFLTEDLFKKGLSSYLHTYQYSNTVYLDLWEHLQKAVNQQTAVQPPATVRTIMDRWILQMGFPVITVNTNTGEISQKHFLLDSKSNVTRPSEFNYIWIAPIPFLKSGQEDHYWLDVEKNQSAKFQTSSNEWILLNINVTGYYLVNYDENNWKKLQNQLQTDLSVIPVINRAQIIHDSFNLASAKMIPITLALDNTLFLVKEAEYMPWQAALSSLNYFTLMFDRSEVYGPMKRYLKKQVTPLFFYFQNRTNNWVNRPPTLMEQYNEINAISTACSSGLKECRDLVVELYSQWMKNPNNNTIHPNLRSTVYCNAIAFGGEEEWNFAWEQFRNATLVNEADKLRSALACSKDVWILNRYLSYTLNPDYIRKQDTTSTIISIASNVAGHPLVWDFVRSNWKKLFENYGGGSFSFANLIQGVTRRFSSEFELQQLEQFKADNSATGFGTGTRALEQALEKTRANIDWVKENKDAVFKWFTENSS
# Protocol: (§1) In 10–12-week-old male Swiss mice, we induced MI by ligation of the left anterior descending coronary artery (LAD) as described before to test coNGR (n = 5) or co(NGR)4 (n = 8). A group of sham-operated Swiss mice (n = 5) was used as control. SPECT imaging was performed 7 days after MI or sham surgery. All animals were held under the guidelines of the animal care facility (Maastricht University). All animal experiments were approved by the Committee for Animal Welfare of Maastricht University.
# Mice were anesthetized with isoflurane (induction 2.5%; maintenance 1.5%), a catheter was placed in a tail vein, and animals were positioned in the SPECT camera (MILabs, Utrecht, The Netherlands). Prior to image acquisition, a bolus injection of ^99mTc-sestamibi and ^111In-coNGR or ^111In-co(NGR)4 was given intravenously (i.v.) in a maximum volume of 200 µL. Table S1 in Supplementary Material available online at https://doi.org/10.1155/2017/8638549 provides an overview of the average injected dose. Immediately after injection, 4 consecutive time frames of 15 min each were acquired. For image quantification we used the last of these frames.
# Acquired list mode data was reconstructed using MILabs reconstruction software (version 2.51) employing the POS-EM algorithm (6 iterations and 16 subsets, reconstructed at a voxel size of 0.4 mm). ^99mTc and ^111In images were reconstructed by selecting photo peak and background energy levels as described before.
# To allow quantification of imaging agent uptake, in vivo isotope-specific conversion factors (CF) were determined for the 0.6 mm collimator in a representative phantom with a known activity. Using the previously described method the following conversion factors (CF), CF99mTc 612 MBq/mL and CF111In 643 MBq/mL, were found.
# PMOD 3.7 cardiac tool PCARD (PMOD technologies, Zürich, Switzerland) was used to segment the heart in the 17-segment model. Uptake per segment was subsequently expressed as a mean standardized uptake value (SUVmean), also using the previously described method. For body weight, we assumed that 1 g equalled 1 mL.
# [2] = in vitro; assay type: in vitro ADME; details: human, whole blood
# Protocol: ^111[…], or ^111In-co(NGR)4 was added to […] human blood in heparin (BD Biosciences, […], The Netherlands). Blood stability was tested at 0, 10, 30, and 50 min. For each time point imaging agents were separated from blood cells and proteins by adding 0.5 mL MeCN (VWR International BV, Breda, The Netherlands) to 0.5 mL blood sample followed by centrifugation (2,000 ×g, 3 min). Supernatant samples were analyzed by HPLC using the above-mentioned method.
# [3] = Octanol/water partition coefficient (logP); assay type: physicochemical; details: 111In-labeled tracer, separate experiment 2 of 3, N = 3, method as ref 22
# Protocol: The logP value of each compound was determined in three separate experiments as described previously.
# [4] = set-up: species or system Swiss mice; details: mouse, in vivo
# Protocol: as §1, with “University. After imaging, the vital organs were harvested and kept for gamma-counting (Wallac Wizard, Turku, Finland). Acquired data were expressed as percentage injected dose per gram tissue (% ID/g).” for “University.”
# [5] = 111In tracer i.v., last of 4 15-min SPECT frames, SUVmean, 17-segment model, n = 5 coNGR, n = 8 co(NGR)4
# [6] = 111In-labeled tracer i.v., last of 4 consecutive 15 min SPECT frames
compound,measurement,setting,value
N=C(N)NCCC[C@@H]1NC(=O)CNC(=O)[C@H](CC(N)=O)NC(=O)[C@H](CSC2CC(=O)N(CC3CCC(C(=O)NCCCC[C@H](NC(=O)C4CCC(CN5C(=O)CC(SC[C@@H]6NC(=O)CNC(=O)[C@H](CCCNC(=N)N)NC(=O)CNC(=O)[C@H](CC(N)=O)NC6=O)C5=O)CC4)C(=O)NCCCC[C@H](NC(=O)[C@H](CCCCNC(=O)C4CCC(CN5C(=O)CC(SC[C@@H]6NC(=O)CNC(=O)[C@H](CCCNC(=N)N)NC(=O)CNC(=O)[C@H](CC(N)=O)NC6=O)C5=O)CC4)NC(=O)C4CCC(CN5C(=O)CC(SC[C@@H]6NC(=O)CNC(=O)[C@H](CCCNC(=N)N)NC(=O)CNC(=O)[C@H](CC(N)=O)NC6=O)C5=O)CC4)C(=O)N[C@@H](CCCCNC(=O)[C@@H](N)CSC4CC(=O)N(CC5CCC(C(=O)NCCCCC(C(=O)O)N(CCN(CC(=O)O)CC(=O)O)CCN(CC(=O)O)CC(=O)O)CC5)C4=O)C(N)=O)CC3)C2=O)NC(=O)CNC1=O (some centres unmarked) [co(NGR)4],"SUV of NGR imaging agent, segment 1. Basal anterior",[1]; [5],0.37 ± 0.06
same,"SUV of NGR imaging agent, segment 2. Basal anteroseptal",[1]; [5],0.37 ± 0.05
same,"SUV of NGR imaging agent, segment 3. Basal inferoseptal",[1]; [5],0.40 ± 0.05
same,"SUV of NGR imaging agent, segment 4. Basal inferior",[1]; [5],0.41 ± 0.06
same,"SUV of NGR imaging agent, segment 5. Basal inferolateral",[1]; [5],0.46 ± 0.07
same,"SUV of NGR imaging agent, segment 6. Basal anterolateral",[1]; [5],0.40 ± 0.07
same,"SUV of NGR imaging agent, segment 7. Mid anterior",[1]; [5],0.32 ± 0.04
same,"SUV of NGR imaging agent, segment 8. Mid anteroseptal",[1]; [5],0.36 ± 0.03
same,"SUV of NGR imaging agent, segment 9. Mid inferoseptal",[1]; [5],0.59 ± 0.06
same,"SUV of NGR imaging agent, segment 10. Mid inferior",[1]; [5],0.56 ± 0.08
same,"SUV of NGR imaging agent, segment 11. Mid inferolateral",[1]; [5],0.44 ± 0.07
same,"SUV of NGR imaging agent, segment 12. Mid anterolateral",[1]; [5],0.40 ± 0.05
same,"SUV of NGR imaging agent, segment 13. Apical anterior",[1]; [5],0.54 ± 0.07
same,"SUV of NGR imaging agent, segment 14. Apical septal",[1]; [5],0.80 ± 0.09
same,"SUV of NGR imaging agent, segment 15. Apical inferior",[1]; [5],0.82 ± 0.08
same,"SUV of NGR imaging agent, segment 16. Apical lateral",[1]; [5],0.54 ± 0.06
same,"SUV of NGR imaging agent, segment 17. Apex",[1]; [5],0.76 ± 0.10
same,SUV in segments affected by MI,[1]; [6],0.57 ± 0.03
same,SUV in segments not affected by MI,[1]; [6],0.43 ± 0.02
same,remaining at 50 min,[2],25.3%
same,logP2,[3],−3.64 ± 0.03
same,kidney uptake,[4],Substantial kidney uptake
same,urinary excretion,[4]; iv,54.9 ± 9.1 % ID/g
